Reference: patent US20210353633A1, “CYCLODEXTRIN-BASED FORMULATION OF A BCL-2 INHIBITOR” (LES LABORATOIRES SERVIER, priority 2018, published 2021)
Values after ≈ are worked out from the molar mass of the structure shown. Like-named read-outs stand apart in the source and are kept apart here.

What was measured:
[1] = Solubility test of Compound A, H2SO4 in a HP-β-cyclodextrin as a function of the pH; assay type: physicochemical; details: for solubility at 24 h: aqueous HP-β-cyclodextrin (Cavitron W7HP5) solution, aqueous with cosolvent or surfactant or cyclodextrin, thermodynamic from solid, read-out: Solubility after 24 h
Protocol: The solubility of ‘Compound A, H2SO4’ was studied in the presence of a HP-β-cyclodextrin as a function of the pH.
10 g of the cyclodextrin studied (Cavitron™ W7HP5) are placed in a 50 mL graduated flask. 40 mL of water are then added. The whole is placed under magnetic stirring. The volume is then made up with water to 50 mL.
Approximately 856.7 mg of ‘Compound A, H2SO4’ are weighed. 30 mL of the medium containing the carrier to be tested, that is to say Cavitron™ W7HP5, are then added. The whole is placed under magnetic stirring for 24 hours. The suspension so obtained is passed through a 0.2 μm filter (PALL—PES membrane—diameter 25 mm) before being analysed by HPLC.
In other tests, the pH of the solution is then modified by means of 0.1 N NaOH solution until values of 4 and 8.8 are reached, before the analysis by HPLC chromatography is carried out.

[2] = pH of precipitation by addition of NaOH to a HP-β-cyclodextrin solution (Example 9); assay type: physicochemical; details: hydrogen sulfate salt in Cavitron W7H5 solution; 0.5M NaOH added; visual; duplicate
Protocol: The objective of this study is to define the pH of precipitation of Compound A (hydrogen sulfate salt) from HP-β-cyclodextrin solution to better understand the risk of precipitation and select the pH of the drug product.
Weigh 10 g of Cavitron™ W7H5 in a 50 mL flask. Add 26 g of water and then solubilize the Cavitron™ W7H5 under magnetic agitation. Carefully add 1.14 g of Compound A under magnetic agitation and then add 6.5 mL of water. Solubilize Compound A using magnetic agitation at 60° C. Once totally solubilized, cool down the solution at room temperature then rinse the upper edges of the flask with 0.5 mL of water. The total amount of water added is […].
Slowly add 0.5M NaOH solution under continuous agitation (add 100 μL at each addition step) up to a precipitation is visually observed. The experiment was performed in duplicate. The precipitated solid is separated and dried to be analyzed by RMN, XRPD, XRF, and HPLC.

[3] = system: RS4;11; experiment: Efficacy in RS4;11 xenograft model in mice; assay type: in vivo; details: day 21, 20% HP-β-cyclodextrin solution
Protocol: The in vivo therapeutic effect of Compound A formulated in a solution comprising 20% of a HP-β-cyclodextrin w/v, was determined in the RS4;11 model after intravenous administration.
RS4;11 cell line, obtained from ATCC, were subcutaneously injected into female SCID mice, provided by Charles River. When tumors reached the appropriate tumor volume, mice were randomized using Easy stat software. Compound A (15 mg/kg or 40 mg/kg expressed as free base) was injected i.v. once a week over two weeks.
In a 100 mL flask, introduce 20 g of Cavitron™ W7HP5 and add around 75 mL of a solution water/0.9% NaCl (70/30, v/v). Stir for 15 minutes at room temperature. Then, make up the solution to a volume of 100 mL by adding the previous solution water/0.9% NaCl, while maintaining magnetic stirring. Weigh the necessary amount of ‘Compound A, H2SO4’ and dissolve it with the previous 20% w/v Cavitron™ W7H5 solution. Heat the whole at 60° C. under vigorous magnetic stirring until solubilisation of the components of the mixture is complete. Measure the pH of the solution obtained. […]
Mice were monitored for tumor development and body weight three times a week and tumor size was measured using electronic calipers. […] The last day with all control animals still present in the study, tumor growth inhibition was calculated using the formula: […]
wherein ‘DTV (Delta Tumor Volume) at Dx’ is calculated as follows: […]

[4] = Physical and chemical stability over time of solutions diluted in G5; assay type: physicochemical; details: 12, 20 and 1000 mg/250 mL of G5
Protocol: Moreover, studies of physical stability over time (24 h, 48 h and 72 h) are carried out on the solutions obtained hereinbefore. In particular, these studies include the particle count of the tested solutions in accordance with the method described in the text of the European Pharmacopoeia 2.9.19. Tests 1.B (i.e. counting of the sub-visible particles by light obscuration).
Studies of chemical stability over time (24 h, 48 h and 72 h) are also put in place in order to ensure the stability of the product under laboratory light (1500 lux) and various heat conditions (ambient temperature, 5° C.). These studies include especially measurements of the amount of active ingredient and degradation products. Pharmaceutical compositions of Compound A solubilised by means of a Cavitron™ W7H5 solution diluted in G5 solution were tested for the following concentrations: 12 mg/250 mL, 20 mg/250 mL and 1000 mg/250 mL of G5 solution.

pH from which a precipitate is visually observed ([1]; Cavitron W7HP5 200 mg/mL, pH raised with 0.1 N NaOH) | solubility at 24 h ([1]; Cavitron W7HP5 200 mg/mL + 0.1N NaOH, pH 4.01) [mg/mL] | solubility at 24 h ([1]; Cavitron W7HP5 200 mg/mL + 0.1N NaOH, pH 8.8) [mg/mL] | solubility at 24 h ([1]; Cavitron W7HP5 200 mg/mL, pH 1.86 (without adjustment)) [mg/mL] | pH at which drug precipitation was observed [2] | SMILES | tumor growth inhibition ([3]; 15 mg/kg i.v. once a week for 2 weeks) [%] | tumor growth inhibition ([3]; 40 mg/kg i.v. once a week for 2 weeks) [%] | chemical degradation product ([4]; laboratory light (1500 lux), ambient temperature and 5° C., during 72 h) | rate of sub-visible particles (light obscuration method) ([4]; up to 72 h)
3.2 | 17.1 | 0.99 | 21.6 (≈ 30.1 mM) |  | Cc1c(N(C(=O)c2cc(-c3cc(Cl)ccc3C(=O)N3Cc4ccccc4C[C@H]3CN3CCOCC3)n(C)c2C)c2ccc(O)cc2)cc(C#N)n1C [Compound A, H2SO4, 5-(5-chloro-2-{[(3S)-3-(morpholin-4-ylmethyl)-3,4-dihydroisoquinolin-2(1H)-yl]carbonyl}phenyl)-N-(5-cyano-1,2-dimethyl-1H-pyrrol-3-yl)-N-(4-hydroxyphenyl)-1,2-dimethyl-1H-pyrrole-3-carboxamide] |  |  |  | 
 |  |  |  | 4.27 | Cc1c(N(C(=O)c2cc(-c3cc(Cl)ccc3C(=O)N3Cc4ccccc4C[C@H]3CN3CCOCC3)n(C)c2C)c2ccc(O)cc2)cc(C#N)n1C [Compound A, 5-(5-chloro-2-{[(3S)-3-(morpholin-4-ylmethyl)-3,4-dihydroisoquinolin-2(1H)-yl]carbonyl}phenyl)-N-(5-cyano-1,2-dimethyl-1H-pyrrol-3-yl)-N-(4-hydroxyphenyl)-1,2-dimethyl-1H-pyrrole-3-carboxamide] | 57.83 | 75.52 | No significant chemical degradation product was observed | in accordance with the requirement of the European Pharmacopoeia 2.9.19
